Results taken from ChEMBL document CHEMBL4765347, “Radiomodulatory effect of a non-electrophilic NQO1 inducer identified in a screen of new 6, 8-diiodoquinazolin-4(3H)-ones carrying a sulfonamide moiety” (Eur J Med Chem, 2020).

Assays:
Settings in all cases: filed as activator, time 50.0 min
[1] = target: Nuclear factor erythroid 2-related factor 2 (Mus musculus) (UniProt Q60795); experiment: Activation of Nrf2 in mouse Hepa1c1c7 cells assessed as increase in NQO1 activity at 25 uM using menadione as substrate incubated for 20 mins followed by substrate addition and measured after 30 mins by spectrophotometry relative to control
[2] = target: Nuclear factor erythroid 2-related factor 2 (Mus musculus) (UniProt Q60795); experiment: Activation of Nrf2 in mouse Hepa1c1c7 cells assessed as increase in NQO1 activity at 50 uM using menadione as substrate incubated for 20 mins followed by substrate addition and measured after 30 mins by spectrophotometry relative to control
Nrf2 (Mus musculus) [3] = experiment: Activation of Nrf2 in mouse Hepa1c1c7 cells assessed as increase in NQO1 activity at 0.4 uM using menadione as substrate incubated for 20 mins followed by substrate addition and measured after 30 mins by spectrophotometry relative to control
Nrf2 (Mus musculus) [4] = experiment: Activation of Nrf2 in mouse Hepa1c1c7 cells assessed as increase in NQO1 activity at 0.8 uM using menadione as substrate incubated for 20 mins followed by substrate addition and measured after 30 mins by spectrophotometry relative to control
Nrf2 (Mus musculus) [5] = experiment: Activation of Nrf2 in mouse Hepa1c1c7 cells assessed as increase in NQO1 activity at 1.6 uM using menadione as substrate incubated for 20 mins followed by substrate addition and measured after 30 mins by spectrophotometry relative to control
[6] = target: Nuclear factor erythroid 2-related factor 2 (Mus musculus) (UniProt Q60795); experiment: Activation of Nrf2 in mouse Hepa1c1c7 cells assessed as increase in NQO1 activity at 6.25 uM using menadione as substrate incubated for 20 mins followed by substrate addition and measured after 30 mins by spectrophotometry relative to control
[7] = target: Nuclear factor erythroid 2-related factor 2 (Mus musculus) (UniProt Q60795); experiment: Activation of Nrf2 in mouse Hepa1c1c7 cells assessed as increase in NQO1 activity at 12.5 uM using menadione as substrate incubated for 20 mins followed by substrate addition and measured after 30 mins by spectrophotometry relative to control
Nrf2 (Mus musculus) [8] = experiment: Activation of Nrf2 in mouse Hepa1c1c7 cells assessed as increase in NQO1 activity at 3.125 uM using menadione as substrate incubated for 20 mins followed by substrate addition and measured after 30 mins by spectrophotometry relative to control
Nrf2 (Mus musculus) [9] = experiment: Activation of Nrf2 in mouse Hepa1c1c7 cells assessed as increase in NQO1 activity at 5 uM using menadione as substrate incubated for 20 mins followed by substrate addition and measured after 30 mins by spectrophotometry relative to control
Nrf2 (Mus musculus) [10] = experiment: Activation of Nrf2 in mouse Hepa1c1c7 cells assessed as increase in NQO1 activity at 10 uM using menadione as substrate incubated for 20 mins followed by substrate addition and measured after 30 mins by spectrophotometry relative to control
Nrf2 (Mus musculus) [11] = experiment: Activation of Nrf2 in mouse Hepa1c1c7 cells assessed as increase in NQO1 activity at 20 uM using menadione as substrate incubated for 20 mins followed by substrate addition and measured after 30 mins by spectrophotometry relative to control
[12] = target: Nuclear factor erythroid 2-related factor 2 (Mus musculus) (UniProt Q60795); experiment: Activation of Nrf2 in mouse Hepa1c1c7 cells assessed as increase in NQO1 activity at 40 uM using menadione as substrate incubated for 20 mins followed by substrate addition and measured after 30 mins by spectrophotometry relative to control
Nrf2 (Mus musculus) [13] = experiment: Activation of Nrf2 in mouse Hepa1c1c7 cells assessed as increase in NQO1 activity at 2.5 uM using menadione as substrate incubated for 20 mins followed by substrate addition and measured after 30 mins by spectrophotometry relative to control
Nrf2 (Mus musculus) [14] = experiment: Activation of Nrf2 in mouse Hepa1c1c7 cells assessed as increase in NQO1 activity at 1.25 uM using menadione as substrate incubated for 20 mins followed by substrate addition and measured after 30 mins by spectrophotometry relative to control
Nrf2 (Mus musculus) [15] = experiment: Activation of Nrf2 in mouse Hepa1c1c7 cells assessed as increase in NQO1 activity at 0.313 uM using menadione as substrate incubated for 20 mins followed by substrate addition and measured after 30 mins by spectrophotometry relative to control
Nrf2 (Mus musculus) [16] = experiment: Activation of Nrf2 in mouse Hepa1c1c7 cells assessed as increase in NQO1 activity at 0.625 uM using menadione as substrate incubated for 20 mins followed by substrate addition and measured after 30 mins by spectrophotometry relative to control
Nrf2 (Mus musculus) [17] = experiment: Activation of Nrf2 in mouse Hepa1c1c7 cells assessed as increase in NQO1 activity using menadione as substrate incubated for 20 mins followed by substrate addition and measured after 30 mins by spectrophotometry

Nuclear factor erythroid 2-related factor 2 (Mus musculus), sequence (Q60795 whole entry, looked up): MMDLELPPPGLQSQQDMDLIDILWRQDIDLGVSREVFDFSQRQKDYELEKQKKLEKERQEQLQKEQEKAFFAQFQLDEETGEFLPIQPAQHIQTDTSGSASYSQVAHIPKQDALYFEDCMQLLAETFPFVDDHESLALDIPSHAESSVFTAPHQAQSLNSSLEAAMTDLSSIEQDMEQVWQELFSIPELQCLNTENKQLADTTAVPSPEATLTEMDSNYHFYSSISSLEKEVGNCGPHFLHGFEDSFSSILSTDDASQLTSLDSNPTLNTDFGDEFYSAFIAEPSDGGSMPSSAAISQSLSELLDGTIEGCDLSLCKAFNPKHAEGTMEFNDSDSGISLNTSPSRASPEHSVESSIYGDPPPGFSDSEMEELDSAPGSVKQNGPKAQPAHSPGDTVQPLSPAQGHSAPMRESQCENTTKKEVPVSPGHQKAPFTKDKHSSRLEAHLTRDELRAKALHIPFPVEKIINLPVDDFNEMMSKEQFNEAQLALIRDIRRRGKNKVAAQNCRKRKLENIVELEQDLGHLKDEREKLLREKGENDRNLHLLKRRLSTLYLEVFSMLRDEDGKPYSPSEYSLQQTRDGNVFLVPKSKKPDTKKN

| T/C [1] | T/C [2] | T/C (Nrf2 (Mus musculus) [3]) | T/C (Nrf2 (Mus musculus) [4]) | T/C (Nrf2 (Mus musculus) [5]) | T/C [6] | T/C [7] | T/C (Nrf2 (Mus musculus) [8]) | T/C (Nrf2 (Mus musculus) [9]) | T/C (Nrf2 (Mus musculus) [10]) | T/C (Nrf2 (Mus musculus) [11]) | T/C [12] | T/C (Nrf2 (Mus musculus) [13]) | T/C (Nrf2 (Mus musculus) [14]) | T/C (Nrf2 (Mus musculus) [15]) | T/C (Nrf2 (Mus musculus) [16]) | Activity (Nrf2 (Mus musculus) [17]) | CD (Nrf2 (Mus musculus) [17]) | Structure (SMILES) |
| --- | --- | --- | --- | --- | --- | --- | --- | --- | --- | --- | --- | --- | --- | --- | --- | --- | --- | --- |
| 1.27 | 1.48 | 1.05 | 1.01 | 1.04 | 1.06 | 1.14 | 1.05 | – | – | – | – | – | – | – | – | – | – | Cc1cccc(NC(=O)CSc2nc3c(I)cc(I)cc3c(=O)n2-c2ccc(S(N)(=O)=O)cc2)c1 |
| – | – | – | – | – | – | – | – | 1.01 | 1.01 | 1.01 | 1.05 | 0.97 | 0.99 | 0.99 | 0.97 | – | – | CCc1ccccc1NC(=O)CSc1nc2c(I)cc(I)cc2c(=O)n1-c1ccc(S(N)(=O)=O)cc1 |
| 1.31 | 1.43 | 1.04 | 1.04 | 1.04 | 1.13 | 1.27 | 1.06 | – | – | – | – | – | – | – | – | – | – | Cc1ccccc1NC(=O)CSc1nc2c(I)cc(I)cc2c(=O)n1-c1ccc(S(N)(=O)=O)cc1 |
| – | – | – | – | – | – | – | – | 1.06 | 1.28 | 1.53 | – | 1 | 0.99 | 1.01 | 1.01 | – | – | Cc1cc([N+](=O)[O-])ccc1NC(=O)CSc1nc2c(I)cc(I)cc2c(=O)n1-c1ccc(S(N)(=O)=O)cc1 |
| – | – | – | – | – | – | – | – | 1.04 | 1.09 | 1.15 | 1.3 | 1.04 | 1.05 | 1.03 | 1.02 | – | – | CCc1cccc(NC(=O)CSc2nc3c(I)cc(I)cc3c(=O)n2-c2ccc(S(N)(=O)=O)cc2)c1 |
| 1.08 | 1.13 | 1.01 | 0.99 | 0.99 | 0.99 | 1 | 0.97 | – | – | – | – | – | – | – | – | – | – | Cc1ccc(NC(=O)CSc2nc3c(I)cc(I)cc3c(=O)n2-c2ccc(S(N)(=O)=O)cc2)cc1 |
| 1.34 | 1.94 | 0.95 | 0.93 | 0.89 | 0.91 | 1.05 | 0.83 | – | – | – | – | – | – | – | – | Dose-dependent effect | 50 µM | Cc1cccc([N+](=O)[O-])c1NC(=O)CSc1nc2c(I)cc(I)cc2c(=O)n1-c1ccc(S(N)(=O)=O)cc1 |
| – | – | – | – | – | – | – | – | 1.08 | 1.2 | 1.36 | 1.68 | 1.04 | 1.03 | 1.01 | 1.04 | – | – | NS(=O)(=O)c1ccc(-n2c(SCC(=O)Nc3ccc([N+](=O)[O-])cc3[N+](=O)[O-])nc3c(I)cc(I)cc3c2=O)cc1 |

The next lines start with the compound.

| Structure (SMILES) | T/C [1] | T/C [2] | T/C (Nrf2 (Mus musculus) [3]) | T/C (Nrf2 (Mus musculus) [4]) | T/C (Nrf2 (Mus musculus) [5]) | T/C [6] | T/C [7] | T/C (Nrf2 (Mus musculus) [8]) | T/C (Nrf2 (Mus musculus) [9]) | T/C (Nrf2 (Mus musculus) [10]) | T/C (Nrf2 (Mus musculus) [11]) | T/C [12] | T/C (Nrf2 (Mus musculus) [13]) | T/C (Nrf2 (Mus musculus) [14]) | T/C (Nrf2 (Mus musculus) [15]) | T/C (Nrf2 (Mus musculus) [16]) | Activity (Nrf2 (Mus musculus) [17]) | CD (Nrf2 (Mus musculus) [17]) |
| --- | --- | --- | --- | --- | --- | --- | --- | --- | --- | --- | --- | --- | --- | --- | --- | --- | --- | --- |
| COc1ccc(NC(=O)CSc2nc3c(I)cc(I)cc3c(=O)n2-c2ccc(S(N)(=O)=O)cc2)cc1 | 1.18 | 1.29 | 1.01 | 1.02 | 1 | 0.99 | 1.08 | 0.98 | – | – | – | – | – | – | – | – | – | – |
| CCc1ccc(NC(=O)CSc2nc3c(I)cc(I)cc3c(=O)n2-c2ccc(S(N)(=O)=O)cc2)cc1 | 1.03 | 1.14 | 0.98 | 0.99 | 0.98 | 0.99 | 1.01 | 0.97 | – | – | – | – | – | – | – | – | – | – |
| NS(=O)(=O)c1ccc(-n2c(S)nc3c(I)cc(I)cc3c2=O)cc1 | 1.05 | – | 1.01 | 1.04 | 1.06 | 1.02 | 1.06 | 1.01 | – | – | – | – | – | – | – | – | – | – |
| COc1cc(NC(=O)CSc2nc3c(I)cc(I)cc3c(=O)n2-c2ccc(S(N)(=O)=O)cc2)cc(OC)c1 | 1.73 | 1.81 | 1 | 1.01 | 1.02 | 1.22 | 1.52 | 1.06 | – | – | – | – | – | – | – | – | – | – |
| CCOc1ccc(NC(=O)CSc2nc3c(I)cc(I)cc3c(=O)n2-c2ccc(S(N)(=O)=O)cc2)cc1 | – | – | – | – | – | – | – | – | 1 | 0.99 | 1.09 | 1.16 | 1.02 | 0.99 | 1.01 | 1.02 | – | – |
| NS(=O)(=O)c1ccc(-n2c(SCC(=O)Nc3ccccc3)nc3c(I)cc(I)cc3c2=O)cc1 | 1.26 | 1.47 | 1.03 | 1 | 1.03 | 1.11 | 1.18 | 1.06 | – | – | – | – | – | – | – | – | – | – |
